These are literature values, as cited in patent US20080044462A1 (Collegium Pharmaceutical, Inc. Delaware, priority 2006, published 2008).

For the data set the following is noted: background statement, no test described.

For the compound `CC(NC(C)(C)C)C(=O)c1cccc(Cl)c1` (stereo not shown) [free base form of bupropion, 1-(3-chlorophenyl)-2[(1,1,dimethylethyl)amino]-1-propanone], the “stability in the presence of oxygen” value was “highly unstable”.
